Experimental data taken from ChEMBL document CHEMBL1141053, “Synthesis and SAR of novel oxazolidinones: discovery of ranbezolid” (2005).
Values after ≈ are worked out from the molar mass of the structure shown.

Legend:
Format in all cases: functional
Enterococcus faecalis = test: In vitro minimum inhibitory concentration against Enterococcus faecalis ATCC 29212 after incubation in air at 35 degree C for 24 hr using agar dilution method; conditions: ATCC 29212, 24 h
Staphylococcus aureus [1] = test: In vitro minimum inhibitory concentration against Staphylococcus aureus ATCC 25923 after incubation in air at 35 degree C for 24 hr using agar dilution method; conditions: ATCC 25923, 24 h
Streptococcus pyogenes = test: In vitro minimum inhibitory concentration against Streptococcus pyogenes ATCC 19615 after incubation in air at 35 degree C for 24 hr using agar dilution method; conditions: ATCC 19615, 24 h
Streptococcus pneumoniae = test: In vitro minimum inhibitory concentration against Streptococcus pneumoniae ATCC 6303 after incubation in air at 35 degree C for 24 hr using agar dilution method; conditions: ATCC 6303, 24 h
Enterococcus faecium = test: In vitro minimum inhibitory concentration against vancomycin-resistant Enterococcus faecium 6A after incubation in air at 35 degree C for 24 hr using agar dilution method
Staphylococcus aureus [2] = test: In vitro minimum inhibitory concentration against methicillin-resistant Staphylococcus aureus 562 after incubation in air at 35 degree C for 24 hr using agar dilution method
Staphylococcus aureus [3] = test: In vivo effective dose (on day 7-post-infection) against methicillin-resistant Staphylococcus aureus 562 infected mice upon peroral administration at 30 min and 4 hr post-infection; conditions: po
Escherichia coli [4] = test: Minimum inhibitory concentration against Tol C pump deficient Escherichia coli strain
Escherichia coli [5] = test: Minimum inhibitory concentration against […] AB pump deficient Escherichia coli strain
Escherichia coli [6] = test: Minimum inhibitory concentration against wild-type Escherichia coli strain

SMILES | MIC (Enterococcus faecalis) | MIC (Staphylococcus aureus [1]) | MIC (Streptococcus pyogenes) | MIC (Streptococcus pneumoniae) | MIC (Enterococcus faecium) | MIC (Staphylococcus aureus [2]) | ED50 (Staphylococcus aureus [3]) | MIC (Escherichia coli [4]) | MIC (Escherichia coli [5]) | MIC (Escherichia coli [6])
CC(=O)NC[C@H]1CN(c2ccc(N3CCC(N(C)c4ccc([N+](=O)[O-])o4)C(C)C3)c(F)c2)C(=O)O1 (some centres not stated) | > 16 mg/L | > 16 mg/L | > 16 mg/L | > 16 mg/L | > 16 mg/L | > 16 mg/L | – | – | – | –
CC(=O)NC[C@H]1CN(c2ccc(N3CCN(Cc4ccc(/C=N/O)o4)CC3)c(F)c2)C(=O)O1 | 16 mg/L (≈ 34.8 µM) | 2 mg/L (≈ 4.35 µM) | 4 mg/L (≈ 8.71 µM) | 8 mg/L (≈ 17.4 µM) | 8 mg/L (≈ 17.4 µM) | 2 mg/L (≈ 4.35 µM) | – | – | – | –
CCOC(=O)c1ccc(CN2CCN(c3ccc(N4C[C@H](CNC(C)=O)OC4=O)cc3F)CC2)o1 | > 16 mg/L | > 16 mg/L | > 16 mg/L | > 16 mg/L | > 16 mg/L | > 16 mg/L | – | – | – | –
CC(=O)NC[C@H]1CN(c2ccc(N3CCC(N(C(C)=O)c4ccc([N+](=O)[O-])o4)CC3)c(F)c2)C(=O)O1 | > 16 mg/L | > 16 mg/L | > 16 mg/L | > 16 mg/L | > 16 mg/L | > 16 mg/L | – | – | – | –
CC(=O)NC[C@H]1CN(c2ccc(N3CCN(Cc4ccc(C(=O)O)o4)CC3)c(F)c2)C(=O)O1 | > 16 mg/L | > 16 mg/L | > 16 mg/L | > 16 mg/L | > 16 mg/L | > 16 mg/L | – | – | – | –
CC(=O)NC[C@H]1CN(c2ccc(N3CCN(Cc4ccc(CO)o4)CC3)c(F)c2)C(=O)O1 | > 16 mg/L | > 16 mg/L | > 16 mg/L | > 16 mg/L | > 16 mg/L | > 16 mg/L | – | – | – | –
CC(=O)NC[C@H]1CN(c2ccc(N3CCN(Cc4ccc([N+](=O)[O-])s4)CC3)c(F)c2)C(=O)O1 | 8 mg/L (≈ 16.8 µM) | 8 mg/L (≈ 16.8 µM) | 1 mg/L (≈ 2.09 µM) | 8 mg/L (≈ 16.8 µM) | 8 mg/L (≈ 16.8 µM) | 8 mg/L (≈ 16.8 µM) | – | – | – | –
CC(=O)NC[C@H]1CN(c2ccc(N3C[C@@H]4[C@@H](CN(C)c5ccc([N+](=O)[O-])o5)[C@@H]4C3)c(F)c2)C(=O)O1 | 4 mg/L (≈ 8.21 µM) | 2 mg/L (≈ 4.1 µM) | 0.125 mg/L (≈ 0.256 µM) | – | 2 mg/L (≈ 4.1 µM) | 1 mg/L (≈ 2.05 µM) | > 25 mg/kg | – | – | –
CC(=O)NC[C@H]1CN(c2ccc(N3CCN(Cc4ccc(Br)o4)CC3)c(F)c2)C(=O)O1 | > 16 mg/L | > 16 mg/L | > 16 mg/L | > 16 mg/L | > 16 mg/L | > 16 mg/L | – | – | – | –
CC(=O)NC[C@H]1CN(c2ccc(N3C[C@@H](C)N(Cc4ccc([N+](=O)[O-])o4)[C@@H](C)C3)c(F)c2)C(=O)O1 | 8 mg/L (≈ 16.3 µM) | 16 mg/L (≈ 32.7 µM) | 16 mg/L (≈ 32.7 µM) | 16 mg/L (≈ 32.7 µM) | 8 mg/L (≈ 16.3 µM) | 8 mg/L (≈ 16.3 µM) | – | – | – | –
CC(=O)NC[C@H]1CN(c2ccc(N3CCCN(Cc4ccc([N+](=O)[O-])o4)CC3)c(F)c2)C(=O)O1.Cl | 2 mg/L | 2 mg/L | 1 mg/L | 1 mg/L | 2 mg/L | 1 mg/L | > 25 mg/kg | – | – | –
CC(=O)NC[C@H]1CN(c2ccc(N3CCOCC3)c(F)c2)C(=O)O1 [LINEZOLID] | – | – | 2 mg/L (≈ 5.93 µM) | – | 2 mg/L (≈ 5.93 µM) | – | 5.6 mg/kg | – | – | –
CC(=O)NC[C@H]1CN(c2ccc(N3CCN(Cc4ccc([N+](=O)[O-])o4)CC3)c(F)c2)C(=O)O1.Cl [RANBEZOLID CHLORIDE] | 2 mg/L | 1 mg/L | 0.125 mg/L | 0.125 mg/L | 2 mg/L | 1 mg/L | – | 2 mg/L | 2 mg/L | ≤ 16 mg/L
CN[C@H](CC(C)C)C(=O)N[C@H]1C(=O)N[C@@H](CC(N)=O)C(=O)N[C@H]2C(=O)N[C@H]3C(=O)N[C@H](C(=O)N[C@H](C(=O)O)c4cc(O)cc(O)c4-c4cc3ccc4O)[C@H](O)c3ccc(c(Cl)c3)Oc3cc2cc(c3O[C@@H]2O[C@H](CO)[C@@H](O)[C@H](O)[C@H]2O[C@H]2C[C@](C)(N)[C@H](O)[C@H](C)O2)Oc2ccc(cc2Cl)[C@H]1O [VANCOMYCIN] | > 16 mg/L | – | – | 0.5 mg/L (≈ 0.345 µM) | – | – | 8.8 mg/kg | – | – | –
